# Source: PMC10327353 (Breast Cancer Research : BCR, 2023)
# Key:
# BT474C1 cells = assay: Cell proliferation assay (CellTiter-Glo), BT474C1; assay type: cell-based, human; conditions: BT474C1, 72 hrs
# Method: BT474C1-Luci Mono1 cells were seeded in 384-well plates at 1500 cells/well in DMEM medium containing 10% FBS and 1 mM Oxaloacetic acid (OAA). A431 cells were seeded in 384-well plates at 1,000 cells/well in DMEM medium containing 10% FBS. After overnight incubation, cells were treated with compounds at various concentrations for 3 days. Then cell viability was measured using a CellTiter-Glo Luminescent Cell Viability Assay from Promega Corp. according to the manufacturer's instructions.
# wild-type EGFR = target: T1, wild-type EGFR (Homo sapiens, UniProt P00533); assay: pEGFR MSD assay in A431 cells; assay type: cell-based; conditions: A431, 4 hrs treatment, EGF stimulation
# T1 construct: endogenous in cells; host or cells: A431
# Method: (§1) A431 and BT474C1-Luci Mono1 cells were seeded in 96-well plates at 20,000 cells/well in DMEM medium containing 1% FBS. After overnight incubation, all cells were treated with compounds at a series of concentrations for 4 hrs. For A431 cell line, an extra stimulation with recombinant human EGF (100 ng/ml for 10 minutes) is applied to activate wild-type EGFR following compound treatment. pEGFR^Y1068 and total EGFR levels were measured by an electro chemiluminescent method (MULTI-SPOT®96 4-Spot HB Prototype EGFR Triplex […]: pEGFR (Y1068), Total EGFR; MESO SCALE DISCOVERY, Cat# N45ZB-1) with MSD SECTOR® Imager, which outputs the ratio of pEGFR/total EGFR for each well. pHER2^Y1248 and total HER2 levels were measured similarly using pHER2 (Y1248) Assay Whole Cell Lysate Kit (MESO SCALE DISCOVERY, Cat# K151CLD-3). The percentage of inhibition was calculated as: % Inhibition = 100 x [1 - (ratio of the sample well - ratio of Min ctrl well)/ (ratio of Max ctrl well - ratio of Min ctrl well)].
# HER2 = HER2 (Homo sapiens, UniProt P04626); assay: pHER2 MSD assay in BT474C1 cells; assay type: cell-based; set-up: endogenous in cells; host or cells: BT474C1-Luci Mono1 (BT474 transfected with luciferase only); conditions: BT474C1, 4 hrs treatment
# Method: as §1
# P-gp (MDR1) = target: T2, P-gp (MDR1) (Homo sapiens, UniProt P08183); assay: P-gp efflux ratio, bi-directional transport assay; assay type: in vitro ADME
# T2 construct: expressed in transfected cells; host or cells: MDCKII-MDR1
# Text: Passive permeability (Papp) characterizes the rate across the cell membrane due to passive diffusion. A high permeability enables the rapid establishment of equilibrium among plasma, CSF, and brain compartments. Except for passive permeability, sufficient unbound drug concentration in the brain is governed by efflux transporters, including P-gp (MDR1, ABCB1) and BCRP, at BBB. Efflux ratio (ER) reflects the liability of a compound to be pumped out of the brain by BBB efflux transporters, which is indicated by the distribution disequilibrium between the plasma and the brain compartments.
# […] The adjusted efflux ratio was used to determine if DZD1516/DZ2678 underwent active efflux. Verapamil, a P-glycoprotein (P-gp) inhibitor, was used to identify if any active transport processes were mediated through P-gp. The apical-to-basolateral (A-B) and basolateral-to-apical (B-A) transport of DZD1516/DZ2678 in HBSS (25 mM HEPES, pH 7.4) with 0.1% BSA was measured across MDCKII-MDR1 cell monolayers in the absence and presence of the P-gp inhibitor, verapamil (100 μM). The apical-to-basolateral (A-B) and basolateral-to-apical (B-A) transport of DZD1516/DZ2678 in HBSS (25 mM HEPES, pH 7.4) with 0.1% BSA was also measured across MDCKII cell monolayers in the absence and presence of the P-gp inhibitor, verapamil. Incubations were performed at approximately 37°C for 120 min, with the functionality of the test system being confirmed using 5 μM digoxin as a positive control substrate. […] determined by quantifying substrate concentration in the incubation medium of the donor compartment at the beginning of the incubation period and both donor and receiver compartments at the end of the incubation period. The data was used to calculate the apparent permeability (Papp). All incubations were performed in triplicate, and the integrity of the cell monolayers was confirmed using the marker Lucifer yellow.
# [1] = Human hepatocyte intrinsic clearance; assay type: in vitro ADME; conditions: human hepatocytes; for hepatocyte CLint: read-out: Human Heps Clint
# P-gp-BCRP = P-gp-BCRP efflux ratio, cellular transport assay; assay type: in vitro ADME, human; conditions: human, not told; 1 µM
# Method: A discussion of the structure–activity relationship (SAR) cumulated in the design of DZD1516 (Fig. 1) is as follows. The HER2 inhibitory potency screening for SAR development was performed using HER2 and EGFR enzymatic assays. The cellular activity was evaluated in HER2+ cell line BT474C1 by measuring pHER2 and antiproliferation activities. Cellular transport assays measuring the permeability and efflux ratio of compounds in cells expressing human P-gp (MDR1) and BCRP were used to provide essential information for assessing their BBB penetration potential.
# Chain of HER2 (P04626 23-1255): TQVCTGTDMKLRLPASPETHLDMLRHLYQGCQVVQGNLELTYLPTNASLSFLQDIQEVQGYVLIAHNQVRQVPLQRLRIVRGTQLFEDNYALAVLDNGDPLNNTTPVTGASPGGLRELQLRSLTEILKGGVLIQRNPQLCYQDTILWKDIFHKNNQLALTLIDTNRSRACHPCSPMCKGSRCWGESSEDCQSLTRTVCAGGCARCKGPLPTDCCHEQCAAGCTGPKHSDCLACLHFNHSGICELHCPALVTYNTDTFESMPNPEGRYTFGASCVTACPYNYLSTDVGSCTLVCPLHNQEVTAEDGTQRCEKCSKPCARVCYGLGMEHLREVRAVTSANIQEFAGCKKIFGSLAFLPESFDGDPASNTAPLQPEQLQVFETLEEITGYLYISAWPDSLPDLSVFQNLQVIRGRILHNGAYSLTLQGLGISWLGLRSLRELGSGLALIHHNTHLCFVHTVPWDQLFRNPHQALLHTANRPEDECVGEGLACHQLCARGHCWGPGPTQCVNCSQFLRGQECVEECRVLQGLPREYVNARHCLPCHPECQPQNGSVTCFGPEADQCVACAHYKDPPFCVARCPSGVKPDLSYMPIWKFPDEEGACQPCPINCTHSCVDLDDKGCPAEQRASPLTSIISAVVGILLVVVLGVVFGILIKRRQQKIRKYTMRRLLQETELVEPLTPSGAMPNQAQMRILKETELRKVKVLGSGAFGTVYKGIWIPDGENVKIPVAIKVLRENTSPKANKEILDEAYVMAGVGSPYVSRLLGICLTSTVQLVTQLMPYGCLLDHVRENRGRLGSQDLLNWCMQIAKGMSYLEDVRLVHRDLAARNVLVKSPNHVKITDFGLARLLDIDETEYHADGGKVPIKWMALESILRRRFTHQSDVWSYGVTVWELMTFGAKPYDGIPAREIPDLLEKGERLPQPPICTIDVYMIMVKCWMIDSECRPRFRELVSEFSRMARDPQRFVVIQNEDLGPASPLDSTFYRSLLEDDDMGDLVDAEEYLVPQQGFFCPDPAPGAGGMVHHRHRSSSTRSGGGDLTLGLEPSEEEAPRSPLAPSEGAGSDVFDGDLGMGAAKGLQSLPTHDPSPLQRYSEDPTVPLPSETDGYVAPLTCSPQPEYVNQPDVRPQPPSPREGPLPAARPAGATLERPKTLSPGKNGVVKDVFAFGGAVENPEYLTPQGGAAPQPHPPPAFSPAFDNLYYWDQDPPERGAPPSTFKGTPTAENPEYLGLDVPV
# T2 sequence (P08183 whole entry): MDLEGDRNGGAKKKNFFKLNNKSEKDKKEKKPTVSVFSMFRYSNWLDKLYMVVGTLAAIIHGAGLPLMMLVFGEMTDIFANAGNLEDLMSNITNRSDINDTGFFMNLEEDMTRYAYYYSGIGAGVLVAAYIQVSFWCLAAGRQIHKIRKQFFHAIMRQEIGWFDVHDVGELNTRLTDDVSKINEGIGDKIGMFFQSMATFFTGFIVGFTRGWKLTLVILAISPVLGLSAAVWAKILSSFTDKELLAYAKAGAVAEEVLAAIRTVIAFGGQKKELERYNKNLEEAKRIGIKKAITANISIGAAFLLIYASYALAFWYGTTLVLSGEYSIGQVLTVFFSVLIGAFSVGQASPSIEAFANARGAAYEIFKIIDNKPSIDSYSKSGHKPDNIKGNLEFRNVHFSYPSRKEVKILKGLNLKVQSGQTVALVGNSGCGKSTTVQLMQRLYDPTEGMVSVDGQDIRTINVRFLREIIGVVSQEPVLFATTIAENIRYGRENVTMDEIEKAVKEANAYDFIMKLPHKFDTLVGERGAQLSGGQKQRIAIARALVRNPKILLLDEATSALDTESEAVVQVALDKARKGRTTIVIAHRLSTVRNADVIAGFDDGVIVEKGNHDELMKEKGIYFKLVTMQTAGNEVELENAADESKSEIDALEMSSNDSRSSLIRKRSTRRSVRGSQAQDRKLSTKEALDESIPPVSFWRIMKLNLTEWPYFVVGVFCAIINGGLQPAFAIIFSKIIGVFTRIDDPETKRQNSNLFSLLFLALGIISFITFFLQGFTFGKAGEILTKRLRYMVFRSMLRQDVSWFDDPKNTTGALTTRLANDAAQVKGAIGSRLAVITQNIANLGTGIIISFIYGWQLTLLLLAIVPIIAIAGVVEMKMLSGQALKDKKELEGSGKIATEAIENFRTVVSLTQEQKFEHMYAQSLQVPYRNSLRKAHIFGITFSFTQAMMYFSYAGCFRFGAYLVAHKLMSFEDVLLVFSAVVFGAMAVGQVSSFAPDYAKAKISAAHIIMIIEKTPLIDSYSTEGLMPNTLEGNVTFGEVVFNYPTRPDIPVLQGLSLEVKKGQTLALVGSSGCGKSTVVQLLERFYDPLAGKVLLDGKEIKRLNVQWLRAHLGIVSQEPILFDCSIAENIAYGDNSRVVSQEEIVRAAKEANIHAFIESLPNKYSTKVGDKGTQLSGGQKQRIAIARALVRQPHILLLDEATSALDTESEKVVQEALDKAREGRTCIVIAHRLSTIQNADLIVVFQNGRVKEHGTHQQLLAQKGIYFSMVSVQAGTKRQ
# T1 sequence (P00533 25-1210): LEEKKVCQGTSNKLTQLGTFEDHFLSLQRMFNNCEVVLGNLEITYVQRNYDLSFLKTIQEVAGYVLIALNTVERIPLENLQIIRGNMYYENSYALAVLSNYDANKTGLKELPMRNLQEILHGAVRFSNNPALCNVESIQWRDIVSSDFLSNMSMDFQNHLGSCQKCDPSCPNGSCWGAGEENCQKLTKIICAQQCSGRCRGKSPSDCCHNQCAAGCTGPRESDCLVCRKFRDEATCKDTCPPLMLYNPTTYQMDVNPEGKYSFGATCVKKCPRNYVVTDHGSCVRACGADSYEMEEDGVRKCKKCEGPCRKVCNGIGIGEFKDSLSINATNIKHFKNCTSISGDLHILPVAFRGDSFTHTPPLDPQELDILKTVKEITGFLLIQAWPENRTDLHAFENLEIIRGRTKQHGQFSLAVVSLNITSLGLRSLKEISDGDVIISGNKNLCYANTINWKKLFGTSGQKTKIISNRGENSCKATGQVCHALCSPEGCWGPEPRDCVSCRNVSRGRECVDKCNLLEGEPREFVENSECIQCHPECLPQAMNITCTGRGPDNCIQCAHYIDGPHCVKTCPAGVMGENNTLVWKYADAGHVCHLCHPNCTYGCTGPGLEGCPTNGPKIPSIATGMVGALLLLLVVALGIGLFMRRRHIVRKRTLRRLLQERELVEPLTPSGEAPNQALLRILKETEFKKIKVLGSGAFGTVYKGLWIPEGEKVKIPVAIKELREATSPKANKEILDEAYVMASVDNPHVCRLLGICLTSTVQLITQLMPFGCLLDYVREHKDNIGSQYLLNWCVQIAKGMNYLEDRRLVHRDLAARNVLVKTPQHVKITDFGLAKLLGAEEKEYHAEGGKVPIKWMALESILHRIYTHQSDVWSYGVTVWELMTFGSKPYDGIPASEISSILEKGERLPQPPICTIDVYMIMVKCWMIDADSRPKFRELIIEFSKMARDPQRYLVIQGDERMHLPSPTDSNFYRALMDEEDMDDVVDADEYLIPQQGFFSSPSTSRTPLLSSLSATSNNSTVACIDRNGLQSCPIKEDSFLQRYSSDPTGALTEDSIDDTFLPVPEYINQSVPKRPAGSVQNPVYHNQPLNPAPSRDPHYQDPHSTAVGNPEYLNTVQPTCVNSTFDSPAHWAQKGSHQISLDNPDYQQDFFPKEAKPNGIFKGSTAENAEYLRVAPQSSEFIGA
SMILES,GI50 (BT474C1 cells) [nM],IC50 (wild-type EGFR) [nM],IC50 (HER2) [nM],GI50 (BT474C1 cells; Homo sapiens) [nM],hepatocyte CLint [1] [µL/min/1e6 cells],other results
Cc1cc(Nc2ncnc3cccc(OC4CCN(C)CC4)c23)ccc1Oc1ccn2ncnc2c1 [Cpd-1],91,> 10000,18,,,Efflux ratio P-gp @1 µM (P-gp (MDR1)): 1.5
COc1cc(O[C@@H]2CCN(C)CC2(F)F)c2c(Nc3ccc(Oc4ccn5ncnc5c4)c(C)c3)ncnc2c1 [Cpd-4],67,,44,,,Human Heps Clint [1]: 20.1 (µL/min)/(10^6 cells)
"CCOc1cc2ncc(C#N)c(Nc3ccc(OCc4ccccn4)c(Cl)c3)c2cc1NC(=O)/C=C/CN(C)C [Neratinib, reference compound]",,,,1.3,7.7,

# Second part, led by results:
GI50 (BT474C1 cells) [nM],IC50 (wild-type EGFR) [nM],IC50 (HER2) [nM],GI50 (BT474C1 cells; Homo sapiens) [nM],SMILES,hepatocyte CLint [1] [µL/min/1e6 cells],other results
,,,13,CS(=O)(=O)CCNCc1ccc(-c2ccc3ncnc(Nc4ccc(OCc5cccc(F)c5)c(Cl)c4)c3c2)o1 [Lapatinib],,
,,0.66,0.7,"CCOc1cc2ncc(C#N)c(Nc3ccc(OCc4ccccn4)c(Cl)c3)c2cc1NC(=O)/C=C/[C@H]1CCCN1C [Pyrotinib, reference compound]",,
,2770,1.7,10,"Cc1cc(Nc2ncnc3ccc(NC4=NC(C)(C)CO4)cc23)ccc1Oc1ccn2ncnc2c1 [Tucatinib, reference compound]",12.5,"efflux ratio at 1 µM (P-gp-BCRP): 64; efflux ratio at 120 min, 1 µM (P-gp (MDR1); human, MDCK-MDR1, pH 7.4): 6.2"
